Source: article PMC10208956, “Microbial peptides activate tumour-infiltrating lymphocytes in glioblastoma” (Nature, 2023)

How the values were obtained:
Type in all cases: cell-based, human
[1] = system: CD45RA− peripheral T cells; assay: Cytokine/chemokine secretion of unselected peripheral CD4+ T cells in response to LRP6; set-up: IL-1a / IL-1ß / IL-2 / IL-3 / IL-4 / IL-5 / IL-6 / IL-7 / IL-10 / IL-13 / IL-15 / IL-17A / IL-33 / TNF-a: unit not given here; conditions: Unselected CD45RA- PBMCs, sheet 6c (right panel)
[2] = system: bacteria/microbiota-reactive peripheral CD4+ T cells; assay: Cytokine/chemokine secretion of selected peripheral CD4+ T cells in response to LRP6; set-up: IL-1a / IL-1ß / IL-2 / IL-3 / IL-4 / IL-5 / IL-6 / IL-7 / IL-10 / IL-13 / IL-15 / IL-17A / IL-33 / TNF-a: unit not given here
[3] = system: IPdBP-pre-stimulated peripheral memory CD4+ T cells; assay: Cytokine/chemokine response of IPdBP-pre-stimulated peripheral memory CD4+ T cells; set-up: IL-1α / IL-1β / IL-2 / IL-3 / IL-4 / IL-5 / IL-6 / IL-7 / IL-10 / IL-13 / IL-15 / IL-17A / IL-33 / TNF-α: unit not given here
[4] = system: bacteria/microbiota-reactive CFSEdim CD4+ TILs; assay: Proliferation of expanded CFSEdim CD4+ TILs that responded to the bacteria/microbiota peptide pool; conditions: 5 days; 4 replicate wells; Fig. 4d
[5] = Selected peripheral CD4+, sheet 6c (right panel)
[6] = secretion by IPdBP-pre-stimulated peripheral memory CD4+ T cells

HPFALTLFEDILY [LRP6]
CCL2/MCP-1 [1]: 0 | CCL3/MIP-1a [1]: 38350.7 | CCL4/MIP-1ß [1]: 1401.95 | CCL11/Eotaxin [1]: 0 | CCL19/MIP-3ß [1]: 0 | CCL20/MIP-3a [1]: 6.73 | CD40 Ligand [1]: 1116.41 | CXCL1/GROa [1]: 804.34 | CXCL2/GROß [1]: 0 | CXCL8/IL-8 [1]: 0 | CXCL10/IP-10 [1]: 0 | Flt-3 Ligand [1]: 15.31 | GM-CSF [1]: 488.27 | Granzyme B [1]: 0 | IFN-a [1]: 1.18 | IFN-γ [1]: 0 | IL-1a [1]: 104.35 | IL-1ra [1]: 0 | IL-1ß [1]: 600.74 | IL-2 [1]: 0 | IL-3 [1]: 1.65 | IL-4 [1]: 0 | IL-5 [1]: 0 | IL-6 [1]: 20465.9 | IL-7 [1]: 0.54 | IL-10 [1]: 27.41 | IL-12p70 [1]: 9.74 | IL-13 [1]: 0 | IL-15 [1]: 1.25 | IL-17A [1]: 0 | IL-17E/IL-25 [1]: 0 | IL-33 [1]: 7.76 | RANTES [1]: 0 | TNF-a [1]: 67.2 | CCL2/MCP-1 [2, 5]: 4526.33 | CCL3/MIP-1a [2, 5]: 3125.42 | CCL4/MIP-1ß [2, 5]: 4031.29 | CCL11/Eotaxin [2, 5]: 4.67 | CCL19/MIP-3ß [2, 5]: 6.3 | CCL20/MIP-3a [2, 5]: 6.57 | CD40 Ligand [2, 5]: 1738.81 | CXCL1/GROa [2, 5]: 373.82 | CXCL2/GROß [2, 5]: 350.46 | CXCL8/IL-8 [2, 5]: 2606.08 | CXCL10/IP-10 [2, 5]: 147.39 | Flt-3 Ligand [2, 5]: 28.81 | GM-CSF [2, 5]: 1627.51 | Granzyme B [2, 5]: 2119.45 | IFN-a [2, 5]: 1.01 | IFN-γ [2, 5]: 159.02 | IL-1a [2, 5]: 15.17 | IL-1ra [2, 5]: 3794.38 | IL-1ß [2, 5]: 23.43 | IL-2 [2, 5]: 10.94 | IL-3 [2, 5]: 107.37 | IL-4 [2, 5]: 4.49 | IL-5 [2, 5]: 283.76 | IL-6 [2, 5]: 167.44 | IL-7 [2, 5]: 0.7 | IL-10 [2, 5]: 475.26 | IL-12p70 [2, 5]: 16.63 | IL-13 [2, 5]: 400.29 | IL-15 [2, 5]: 2.76 | IL-17A [2, 5]: 0 | IL-17E/IL-25 [2, 5]: 0 | IL-33 [2, 5]: 5.21 | RANTES [2, 5]: 798.34 | TNF-a [2, 5]: 1408.41 | cytokine and chemokine production of selected peripheral CD4+ T cells (in words) ([2]; compared with the unselected cells, Extended Data Fig. 6c right): produced various cytokines and chemokines | cytokine and chemokine profile of immunopeptidome-reactive peripheral CD4+ T cells (in words) ([3]; Extended Data Fig. 7c): secreted not only GM-CSF but also several other pro-inflammatory cytokines including IFNγ, TNF and granzyme B | CCL2/MCP-1 [3, 6]: 0 | CCL3/MIP-1α [3, 6]: 3979.57 | CCL4/MIP-1β [3, 6]: 19527 | CCL11/Eotaxin [3, 6]: 3.84 | CCL19/MIP-3β [3, 6]: 12.07 | CCL20/MIP-3α [3, 6]: 17.43 | CD40 Ligand [3, 6]: 4129.61 | CXCL1/GROα [3, 6]: 0 | CXCL2/GROβ [3, 6]: 123.27 | CXCL8/IL-8 [3, 6]: 3466.89 | CXCL10/IP-10 [3, 6]: 353.48 | Flt-3 Ligand [3, 6]: 131.58 | GM-CSF [3, 6]: 8661.95 | Granzyme B [3, 6]: 7766.97 | IFN-α [3, 6]: 8.01 | IFN-γ [3, 6]: 1163.95 | IL-1rα [3, 6]: 0 | IL-1α [3, 6]: 19.6 | IL-1β [3, 6]: 20.52 | IL-2 [3, 6]: 11.3 | IL-3 [3, 6]: 158.99 | IL-4 [3, 6]: 7.36 | IL-5 [3, 6]: 1023.08 | IL-6 [3, 6]: 217.73 | IL-7 [3, 6]: 2.53 | IL-10 [3, 6]: 4192.28 | IL-12p70 [3, 6]: 24.59 | IL-13 [3, 6]: 3507.83 | IL-15 [3, 6]: 4.26 | IL-17A [3, 6]: 4.67 | IL-17E/IL-25 [3, 6]: 0 | IL-33 [3, 6]: 22.2 | RANTES [3, 6]: 10050.3 | TNF-α [3, 6]: 3505.52 | recognition by CD4+ TILs pre-stimulated with the bacteria/microbiota peptide pool, by proliferation and/or GM-CSF secretion (in words) [4]: recognized

REFTKATNVRLRF [LAMA5, vaccine pool peptide from laminin subunit α5]
recognition by CD4+ TILs pre-stimulated with the bacteria/microbiota peptide pool, by proliferation and/or GM-CSF secretion (in words) [4]: recognized
